Measured values published in US11426494B2, “Stents having biodegradable layers” (MT Acquisition Holdings LLC, priority 2007, dated 2022).
Values belong to the compound of their own block, whether it stands above or below them.

Assays:
[1] = drug elution from DES coating; type: physicochemical; settings: heparin+taxol in DES coating, FIG. 9, preliminary data
[2] = rapamycin degradation in DES coating (peak area ratio, control vs Micell processed); type: physicochemical; settings: Micell processed materials vs control samples, FIG. 6

heparin elution continuing [1]: > 15 days
Compound: heparin

Compound: CO[C@H]1C[C@@H]2CC[C@@H](C)[C@@](O)(O2)C(=O)C(=O)N2CCCC[C@H]2C(=O)O[C@H]([C@H](C)C[C@@H]2CC[C@@H](O)[C@H](OC)C2)CC(=O)[C@H](C)/C=C(\C)[C@@H](O)[C@@H](OC)C(=O)[C@H](C)C[C@H](C)/C=C/C=C/C=C/1C [rapamycin]
rate of rapamycin degradation (peak area ratio) [2]: no difference in the rate of rapamycin degradation

Compound: CC(=O)O[C@H]1C(=O)[C@@]2(C)[C@H]([C@H](OC(=O)c3ccccc3)[C@]3(O)C[C@H](OC(=O)[C@H](O)[C@@H](NC(=O)c4ccccc4)c4ccccc4)C(C)=C1C3(C)C)[C@]1(OC(C)=O)CO[C@@H]1C[C@@H]2O [taxol]
primary drug (taxol) elution profile on addition of a 2nd drug (heparin) [1]: not affecting primary drug (taxol) elution profile
